Assay results: patent publication US20040116448A1, “Substances for the therapy of diseases caused by highly proliferating cells” (priority 2001, published 2004)

What was measured:
BIAB cells = assay: Combined proliferation and cell death assay (Neubauer cell counting, trypan blue staining); type: cell-based; conditions: 25 μM, after 24 h
Procedure: To further characterize the role of the various components of the newly described substances, the iron-complexed compound N69 and the compound obtainable from N69 by cleaving the Fe(CO)3 group were prepared and employed in a combined proliferation and cell death assay. Thus, BIAB cells were treated for 24 h and 72 h. with different concentrations of N69 or the corresponding compound lacking the iron complex. Controls contained corresponding amounts of the solubilizer ethanol. After the treatment, the number of cells was counted in a Neubauer counting chamber, and the number of dead cells was counted by trypan blue staining as described by Wieder et al. (1995). […] FIG. 5B states the proportion of dead cells in %±SD (n=3) as determined at these times at the respective concentration. […] As can be easily seen, the complexed iron plays an important role in the cell-death inducing activity of the substances. The complexed iron shifts the dose-effect curve of the cell-death inducing effect of N69 towards lower concentrations.

[1] = system: lymphoblasts from children afflicted with acute lymphoblastic leukemia (ALL); assay: DNA fragmentation apoptosis assay in primary lymphoblasts from children with acute lymphoblastic leukemia (ALL); type: cell-based, human; conditions: 25 μM, 36 h
Procedure: In this experiment, lymphoblasts from children afflicted with acute lymphoblastic leukemia (ALL) were isolated and, after dilution with cell culture medium, treated for 36 h with 25 μM N76, 25 μM N69 or with 9 μM epirubicin (E) as a positive control. Controls contained corresponding amounts of the solubilizer ethanol. After the treatment, the fragmentation of the DNA was measured by staining with propidium iodide followed by quantification by flow cytometry as described by Essmann et al. (2000). The values are stated as % of apoptotic cells based on the total population±SD (n=3).
Thus, with N76 and N69, two substances of general structural formula 2 are provided as effective agents against certain tumor cells, especially those of childhood ALL, but also against other malignant diseases of different origin. […] In these experiments, the cells from eleven ALL patients were isolated and, after dilution with cell culture medium, treated for 36 h with 25 μM N69, 25 μM N76 or corresponding amounts of cytarabin (AraC), fludarabin or doxorubicin. […] After the treatment, the fragmentation of the DNA was measured by staining with propidium iodide followed by quantification by flow cytometry as described by Essmann et al. (2000). P values were calculated from a paired t test and are stated in FIG. 4 directly for the individual pairs to be compared. […]

[2] = system: cells from patients suffering from different leukemias; assay: DNA fragmentation apoptosis assay in cells from patients suffering from different leukemias; type: cell-based, human; conditions: 25 μmol/l, 36 h
Procedure: The usefulness of substances according to the invention for the therapy of various malignant diseases of the hematopoetic system was tested on cells from patients suffering from different diseases. Thus, cells from patients suffering from different leukemias were isolated and, after dilution with cell culture medium, treated for 36 h with 25 μM N69. Controls contained corresponding amounts of the solubilizer ethanol. After the treatment, the fragmentation of the DNA was measured by staining with propidium iodide followed by quantification by flow cytometry as described by Essmann et al. (2000). The result can be seen in FIG. 3. The measured values are stated as % of apoptotic cells based on the total population and represent the mean value from duplicate experiments.

BJAB cells [3] = assay: Cell death of BJAB cells after incubation with JV-206-1 (FIG. 6A); type: cell-based; conditions: incubation for 48 hours
Procedure: (§1) Further studies had the result that the BJAB cells are driven to the mitochondrial apoptosis signal pathway by JV-206-1. […] In addition, the fragmentation of the DNA was measured as a specific characteristic of apoptosis as described by Essmann et al. (2000). […] In these experiments, the proportion of apoptotic cells was between 20% and 48% of the total population, depending on the concentration and incubation time.

BJAB cells [4] = assay: DNA fragmentation (propidium iodide staining, flow cytometry) apoptosis assay in BJAB cells; type: cell-based; conditions: 20 μM
Procedure: The measurement of apoptosis is based on a method which detects the fragmentation of DNA on the level of individual cells, which is typical of apoptosis and distinguishes this form of cell death from necrosis. Thus, BJAB cells were treated with different concentrations of N76 or N69 for 24 h. Controls contained corresponding amounts of the solubilizer ethanol. After the treatment, the fragmentation of DNA was measured by staining with propidium iodide followed by quantification by flow cytometry as described by Essmann et al. (2000). The values are stated as % of apoptotic cells based on the total population±SD (n=3).
as §1

BJAB cells [5] = assay: Mitochondrial membrane potential (JC-1 staining) in BJAB cells; type: cell-based
Procedure: as §1

Compound	proportion of dead cells (trypan blue) (BIAB cells)	pro-apoptotic effect in vitro towards primary ALL cells compared to established cytostatic agents ([1]; cells from eleven ALL patients, versus doxorubicin, cytarabin and fludarabin-5′ dihydrogenphosphate, paired t test)	induction of apoptosis in vitro in therapy-resistant cells of patients ([1]; ALL lymphoblasts, in contrast to 9 μM epirubicin (positive control))	induction of apoptotic cell death ([2]; cells from patients suffering from acute myeloblastic leukemia (AML))	induction of apoptotic cell death ([2]; cells from patients suffering from chronic myeloblastic leukemia (CML))	induction of apoptotic cell death ([2]; cells from patients with a first manifestation of ALL)	induction of apoptotic cell death ([2]; cells from patients with a recurrence of acute lymphoblastic leukemia (ALL-Rez))	induction of cell death (BJAB cells [3])	cell death by apoptosis (DNA fragmentation) (BJAB cells [4])	fraction of cells having a reduced mitochondrial membrane potential (ΔΨm) (BJAB cells [5])
exo-[2′,2″,3′,3″-η-(3′-(3″-(E)-acrylic-acid-ethyl-ester-3″-yl)-2′,3′-didehydro-2′,3′-dideoxy-5′-O-(dimethylthexylsilyl)-β-D-cytidine)]tricarbonyliron [N69]	about 90%	significantly better pro-apoptotic effect	induce apoptosis	induces apoptotic cell death	induces apoptotic cell death	induces apoptotic cell death	induces apoptotic cell death			
CCOC(=O)C=CC1=C[C@H](n2cc(Br)c(=O)[nH]c2=O)C[C@H]1CO[Si](C)(C)C(C)(C)C(C)C.O=[C]=[Fe](=[C]=O)=[C]=O (racemic) [JV-206-1, (3RS,5RS)-3-[3-(5-bromo-2,4-dioxo-3,4-dihydro-2H-pyrimidin-1-yl)-5-[dimethyl-(1,1,2-trimethylpropyl)silanyloxymethyl]-cyclopent-1-enyl]acrylic-acid-ethyl-estertricarbonyliron]								induces cell death	major part of the cells die	concentration-dependent increase
